# Read-outs that look alike come from different tables or passages of the source.
# Legend:
# Akt1 = test system: Akt1; parameters: method as in vendor brief description; settings: ref vendor brief description; cited from earlier work
# [1] = test system: Toxoplasma gondii RH-2F tachyzoites; test: microbe, parasite or virus in culture; settings: 72 h
# Akt3 = test system: Akt3; parameters: method as in vendor brief description; settings: ref vendor brief description; cited from earlier work
# CHO-rSGLT2 = test system: CHO-rSGLT2; parameters: method as in S-inhibitor catalog; settings: vendor brief description; ref S-inhibitor catalog; cited from earlier work
# CHO-mSGLT2 = test system: CHO-mSGLT2; parameters: method as in S-inhibitor catalog; settings: vendor brief description; ref S-inhibitor catalog; cited from earlier work
# CHO-hSGLT2 = test system: CHO-hSGLT2; parameters: method as in S-inhibitor catalog; settings: vendor brief description; ref S-inhibitor catalog; cited from earlier work
# B-Raf = test system: B-Raf; parameters: method as in vendor brief description; settings: ref vendor brief description; cited from earlier work
# B-RafV600E = test system: B-RafV600E; parameters: method as in vendor brief description; settings: ref vendor brief description; cited from earlier work
# c-Raf = test system: c-Raf; parameters: method as in vendor brief description; settings: ref vendor brief description; cited from earlier work
# PI3K/mTOR = test system: PI3K/mTOR; parameters: method as in S-inhibitor catalog; settings: vendor brief description; ref S-inhibitor catalog; read-out: IC50, dual PI3K/mTOR inhibitor; cited from earlier work
# IGF-1R = test system: IGF-1R; parameters: method as in vendor brief description; settings: ref vendor brief description; cited from earlier work
# FAK = test system: FAK; parameters: method as in vendor brief description; settings: ref vendor brief description; cited from earlier work
# NaV1.8 channel = test system: NaV1.8 channel; parameters: method as in S-inhibitor catalog; settings: vendor brief description; ref S-inhibitor catalog; cited from earlier work
# Mer = test system: Mer; parameters: method as in S-inhibitor catalog; settings: vendor brief description; ref S-inhibitor catalog; cited from earlier work
# FGFR2 = test system: FGFR2; parameters: method as in S-inhibitor catalog; settings: vendor brief description; ref S-inhibitor catalog; cited from earlier work
# Flt1 = test system: Flt1; parameters: method as in S-inhibitor catalog; settings: vendor brief description; ref S-inhibitor catalog; cited from earlier work
# in vitro = settings: human, Host viability (%) mean
# FGFR3 = test system: FGFR3; parameters: method as in S-inhibitor catalog; settings: vendor brief description; ref S-inhibitor catalog; cited from earlier work
# PDGFRβ = test system: PDGFRβ; parameters: method as in S-inhibitor catalog; settings: vendor brief description; ref S-inhibitor catalog; cited from earlier work
# Ron = test system: Ron; parameters: method as in S-inhibitor catalog; settings: vendor brief description; ref S-inhibitor catalog; cited from earlier work
# c-Met = test system: c-Met; parameters: method as in S-inhibitor catalog; settings: vendor brief description; ref S-inhibitor catalog; cited from earlier work
# FGFR1 = settings: read-out: IC50, FGFR1; vendor brief description; ref S-inhibitor catalog; cited from earlier work
# Flt3 = test system: Flt3; parameters: method as in S-inhibitor catalog; settings: vendor brief description; ref S-inhibitor catalog; cited from earlier work
# CETP = test system: CETP; parameters: method as in S-inhibitor catalog; settings: vendor brief description; ref S-inhibitor catalog; cited from earlier work
# EGFR = test system: EGFR; parameters: method as in S-inhibitor catalog; settings: vendor brief description; ref S-inhibitor catalog; cited from earlier work
# HER2 [2] = settings: vendor brief description; ref S-inhibitor catalog; cited from earlier work
# XIAP = target: XIAP; parameters: method as in S-inhibitor catalog; settings: vendor brief description; ref S-inhibitor catalog; cited from earlier work
# cIAP1 = target: cIAP1; parameters: method as in S-inhibitor catalog; settings: vendor brief description; ref S-inhibitor catalog; cited from earlier work
# cIAP2 = target: cIAP2; parameters: method as in S-inhibitor catalog; settings: vendor brief description; ref S-inhibitor catalog; cited from earlier work
# JAK2 = test system: JAK2; parameters: method as in S-inhibitor catalog; settings: in HEL cells; vendor brief description; ref S-inhibitor catalog; cited from earlier work
# Stat3 = test system: Stat3; parameters: method as in S-inhibitor catalog; settings: in HEL cells; vendor brief description; ref S-inhibitor catalog; cited from earlier work
# FPTase (H-ras) = target: FPTase (H-ras); parameters: method as in S-inhibitor catalog; settings: vendor brief description; ref S-inhibitor catalog; cited from earlier work
# FPTase (K-ras-4B) = target: FPTase (K-ras-4B); parameters: method as in S-inhibitor catalog; settings: vendor brief description; ref S-inhibitor catalog; cited from earlier work
# FPTase (N-ras) = target: FPTase (N-ras); parameters: method as in S-inhibitor catalog; settings: vendor brief description; ref S-inhibitor catalog; cited from earlier work
# INR263K = test system: INR263K; parameters: method as in S-inhibitor catalog; settings: vendor brief description; ref S-inhibitor catalog; cited from earlier work
# integrase (IN) = target: integrase (IN); parameters: method as in S-inhibitor catalog; settings: vendor brief description; ref S-inhibitor catalog; cited from earlier work
# GSK3 = test system: GSK3; parameters: method as in vendor brief description; settings: ref vendor brief description; cited from earlier work
# NAMPT = settings: read-out: IC50, NAMPT; vendor brief description; ref S-inhibitor catalog; cited from earlier work
# DNA methyltransferase = target: DNA methyltransferase; parameters: method as in vendor brief description; settings: ref vendor brief description; cited from earlier work
# PKCθ = target: PKCθ; parameters: method as in S-inhibitor catalog; settings: vendor brief description; ref S-inhibitor catalog; cited from earlier work
# mGlu5 = test system: mGlu5; parameters: method as in S-inhibitor catalog; settings: vendor brief description; ref S-inhibitor catalog; read-out: EC50, mGlu5 allosteric modulator; cited from earlier work
# rhCETP = test system: rhCETP; parameters: method as in S-inhibitor catalog; settings: vendor brief description; ref S-inhibitor catalog; cited from earlier work
# HDAC2 = test system: HDAC2; parameters: method as in S-inhibitor catalog; settings: vendor brief description; ref S-inhibitor catalog; cited from earlier work
# Cathepsin B = test system: Cathepsin B; parameters: method as in vendor brief description; settings: ref vendor brief description; cited from earlier work
# Cathepsin L = test system: Cathepsin L; parameters: method as in vendor brief description; settings: ref vendor brief description; cited from earlier work
# Cathepsin L2 = test system: Cathepsin L2; parameters: method as in vendor brief description; settings: ref vendor brief description; cited from earlier work
# Cathepsin S = test system: Cathepsin S; parameters: method as in vendor brief description; settings: ref vendor brief description; cited from earlier work
# Cathepsin K = test system: Cathepsin K; parameters: method as in vendor brief description; settings: ref vendor brief description; cited from earlier work
# FAAH [3] = test system: FAAH; parameters: method as in vendor brief description; settings: rat; ref vendor brief description; cited from earlier work
# FAAH [4] = test system: FAAH; parameters: method as in vendor brief description; settings: human; ref vendor brief description; cited from earlier work
# PKCβ = test system: PKCβ; parameters: method as in library vendor description; settings: ref library vendor description; cited from earlier work
# PKCγ = test system: PKCγ; parameters: method as in library vendor description; settings: ref library vendor description; cited from earlier work
# PKCα = test system: PKCα; parameters: method as in library vendor description; settings: ref library vendor description; cited from earlier work
# PKCε = test system: PKCε; parameters: method as in library vendor description; settings: ref library vendor description; cited from earlier work
# HER2 [5] = test system: HER2; parameters: method as in library vendor description; settings: ref library vendor description; cited from earlier work
# HER1 = test system: HER1; parameters: method as in library vendor description; settings: ref library vendor description; cited from earlier work
# cyclin A/CDK2 = test system: cyclin A/CDK2; parameters: method as in S-inhibitor catalog; settings: vendor brief description; ref S-inhibitor catalog; cited from earlier work
# [6] = read-out: Parasite inhibition (%) mean, preliminary screen of compound library, mean
# [7] = read-out: Parasite inhibition (%) mean, preliminary screen, mean
structure (smiles),measurement,setting,value
CC(C)NC[C@@H](C(=O)N1CCN(c2ncnc3c2[C@H](C)C[C@H]3O)CC1)c1ccc(Cl)cc1 [GDC-0068],IC50,Akt1,[…]
same,inhibition of growth at 5 µM,[1]; [6],35.4%
Cc1ccc([C@@H]2O[C@H](CO)[C@@H](O)[C@H](O)[C@H]2O)cc1Cc1ccc(-c2ccc(F)cc2)s1 [Canagliflozin],IC50,CHO-rSGLT2,3.7 nM
same,IC50,CHO-mSGLT2,2 nM
same,inhibition of growth at 5 µM,[1]; [6],0.5%
same,IC50,CHO-hSGLT2,4.4 nM
CC(C)(C)c1nc(-c2cccc(NS(=O)(=O)c3c(F)cccc3F)c2F)c(-c2ccnc(N)n2)s1 [Dabrafenib (GSK2118436)],IC50,B-Raf,[…]
same,inhibition of growth at 5 µM,[1]; [6],0.8%
same,IC50,c-Raf,5 nM
COc1ccc(-c2ccc3ncc4c(c3c2)n(-c2ccc(N3CCNCC3)c(C(F)(F)F)c2)c(=O)n4C)cn1 [NVP-BGT226],IC50,PI3K/mTOR,1 nM
same,inhibition of growth at 5 µM,[1]; [6],6.1%
CNC(=O)c1ccccc1Nc1nc(Nc2ccc(N3CCOCC3)cc2OC)ncc1Cl [NVP-TAE226],IC50,IGF-1R,[…]
same,inhibition of growth at 5 µM,[1]; [6],66.8%
same,IC50,FAK,5.5 nM
COc1cc(NC(=O)c2ccc(-c3ccc(Cl)cc3)o2)cc(OC)c1 [A-803467],inhibition of growth at 5 µM,[1]; [6],0.3%
same,IC50,NaV1.8 channel,8 nM
CN(C[C@@H]1COCCO1)S(=O)(=O)Nc1ccc2ccc3ncc(-c4cnn(C)c4)cc3c(=O)c2c1 [MK-2461],IC50,Mer,24 nM
same,IC50,FGFR2,39 nM
same,IC50,Flt1,10 nM
same,viability at 72 h,in vitro,60.3%
same,inhibition of growth at 5 µM,[1]; [6],79.8%
same,IC50,FGFR3,50 nM
same,IC50,PDGFRβ,22 nM
same,IC50,Ron,7 nM
same,IC50,c-Met,2.5 nM
same,IC50,FGFR1,65 nM
same,IC50,Flt3,22 nM
CCOC(=O)N1c2ccc(C(F)(F)F)cc2[C@H](N(Cc2cc(C(F)(F)F)cc(C(F)(F)F)c2)C(=O)OC)C[C@H]1CC [Torcetrapib (CP-529414)],IC50,CETP,37 nM
same,inhibition of growth at 5 µM,[1]; [6],22.1%
CC(C)(O)CC(=O)NCCn1ccc2ncnc(Nc3ccc(Oc4cccc(C(F)(F)F)c4)c(Cl)c3)c21 [TAK-285],IC50,EGFR,[…]
same,inhibition of growth at 5 µM,[1]; [6],-12.2%
same,IC50,HER2 [2],17 nM
CN[C@@H](C)C(=O)N[C@H]1CN(C(=O)CC(C)C)CC[C@H]2CC[C@@H](C(=O)NC(c3ccccc3)c3ccccc3)N2C1=O [AT-406],Ki,XIAP,66.4 nM
same,inhibition of growth at 5 µM,[1]; [6],33.5%
same,Ki,cIAP1,1.9 nM
same,Ki,cIAP2,5.1 nM
C[C@H](NC(=O)/C(C#N)=C/c1cccc(Br)n1)c1ccccc1 [WP1066],IC50,JAK2,2300 nM
same,inhibition of growth at 5 µM,[1]; [6],-8.7%
same,IC50,Stat3,2430 nM
NC(=O)N1CCC(CC(=O)N2CCC([C@H]3c4ncc(Br)cc4CCc4cc(Cl)cc(Br)c43)CC2)CC1 [Lonafarnib (SCH66336)],IC50,FPTase (H-ras),1.9 nM
same,inhibition of growth at 5 µM,[1]; [6],0.4%
same,IC50,FPTase (K-ras-4B),5.2 nM
same,IC50,FPTase (N-ras),2.8 nM
CCN1C[C@@H](C)n2c(c(O)c3c(=O)n(Cc4ccc(F)c(Cl)c4)nc(C(=O)NC)c32)C1=O [MK-2048],inhibition of growth at 5 µM,[1]; [6],1%
same,IC50,INR263K,1.5 nM
same,IC50,integrase (IN),2.6 nM
O=c1sn(-c2cccc3ccccc23)c(=O)n1Cc1ccccc1 [Tideglusib],IC50,GSK3,[…]
same,inhibition of growth at 5 µM,[1]; [6],52.8%
O=C(/C=C/c1cccnc1)NCCCCC1CCN(C(=O)c2ccccc2)CC1 [APO866 (FK866)],inhibition of growth at 5 µM,[1]; [6],10.4%
O=C(O)[C@H](Cc1c[nH]c2ccccc12)N1C(=O)c2ccccc2C1=O [RG108],inhibition of growth at 5 µM,[1]; [6],2.5%
same,IC50,DNA methyltransferase,115 nM
CN1CCN(c2nc(C3=C(c4c[nH]c5ccccc45)C(=O)NC3=O)c3ccccc3n2)CC1 [Sotrastaurin (AEB071)],inhibition of growth at 5 µM,[1]; [6],40.4%
same,Ki,PKCθ,0.22 nM
CCCCOc1ccc(C(=O)Nc2ccc(F)cc2F)cc1 [VU 0357121],inhibition of growth at 5 µM,[1]; [6],0.1%
same,EC50,mGlu5,33 nM
CCC(CC)CC1(C(=O)Nc2ccccc2SC(=O)C(C)C)CCCCC1 [Dalcetrapib (JTT-705)],IC50,rhCETP,200 nM
same,inhibition of growth at 5 µM,[1]; [6],0.4%
COc1ccc(-c2nc(N3CCOCC3)c3sc(CN(C)c4ncc(C(=O)NO)cn4)cc3n2)cn1 [PI3K/HDAC Inhibitor I],viability at 72 h,in vitro,72.1%
same,inhibition of growth at 5 µM,[1]; [6],78.4%
same,IC50,HDAC2,5 nM
Cn1nc(C(C)(C)C)cc1C(=O)N[C@@H](Cc1cccc(Cl)c1)C(=O)NCC#N [Cathepsin Inhibitor 1],pIC50 Cathepsin B,Cathepsin B,5.2
same,pIC50 Cathepsin L,Cathepsin L,7.9
same,pIC50 Cathepsin L2,Cathepsin L2,6.7
same,pIC50 Cathepsin S,Cathepsin S,6.0
same,inhibition of growth at 5 µM,[1]; [6],21.5%
same,pIC50 Cathepsin K,Cathepsin K,5.5
O=C(Nc1ccccc1)N1CCN(c2nc(-c3ccccc3)ns2)CC1 [JNJ 1661010],IC50,FAAH [3],10 nM
same,IC50,FAAH [4],12 nM
same,inhibition of growth at 5 µM,[1]; [6],10.5%
Cn1cc(C2=C(c3cn(C4CCN(Cc5ccccn5)CC4)c4ccccc34)C(=O)NC2=O)c2ccccc21 [Enzastaurin (LY317615)],IC50,PKCβ,6 nM
same,inhibition of growth at 5 µM,[1]; [7],11.4%
Cc1c(NC(=O)OC[C@@H]2COCCN2)cn2ncnc(Nc3ccc4c(cnn4Cc4cccc(F)c4)c3)c12 [BMS-599626 (AC480)],inhibition of growth at 5 µM,[1]; [7],39.6%
same,IC50,HER2 [5],30 nM
same,IC50,HER1,20 nM
CNC(=O)c1nn(C)c2c1C(C)(C)Cc1cnc(Nc3ccc(N4CCN(C)CC4)cc3)nc1-2 [Milciclib (PHA-848125)],IC50,cyclin A/CDK2,45 nM
same,inhibition of growth at 5 µM,[1]; [6],16.4%

# Source: publication PMC7216583 (Parasites & Vectors, 2020)
